Laboratory results published in patent US4931292A, “Method of preparing iron(III) phosphate compounds for iron fortification of food products” (EKA Nobel AB, priority 1986, dated 1990).
“Also recorded” adds a separate entry of the source.

How the values were obtained:
[1] = Examination of bioavailability in humans: absorption of 55Fe-labelled iron compound and 59Fe-labelled native iron from iron-fortified buns; assay type: in vivo; details: for Absorption, Fortification: fortification iron (55Fe)
Method: The examination was carried out by the technique described in the above-mentioned paper by Hallberg et al.
The iron compound to be tested is labelled with radioactive iron, ^55 Fe, in the synthesis of the compound used. This iron is used to fortify flour from which buns are made by standard procedures, for example as follows: ______________________________________ Ingredients Parts by weight ______________________________________ wheat-flour 100 sugar 3.5 salt 1.0 yeast 6.5 water 83 iron source 6.5 ^- 10^-3 ______________________________________
The iron occurring naturally (native iron) in wheat-flour is labelled by adding tracer amounts of ^59 Fe-labelled iron(III)chloride. The buns are thus made of flour which is labelled with two different radioactive isotopes.
The ingredients are mixed, and the dough is allowed to rise for 30 minutes. After the usual kneading, the dough is placed in small aluminium baking tins where the dough pieces are allowed to rise for another 30 minutes. The dough pieces in the baking tins are subsequently baked at a temperature of 250° C. for 10 minutes
These double-labelled buns are served a group of test subjects, for breakfast with coffee, margarine and marmalade two successive mornings after a night's fast. No food or beverage is allowed for three hours after breakfast. Two weeks after the last breakfast, blood tests are made to measure the occurrence of ^55 Fe and ^59 Fe in blood. Furthermore,the totally absorbed amount of ^59 Fe in the body is measured by a so-called total-body counter Via the ratio of ^59 Fe to ^55 Fe in blood samples, also the totally absorbed amount of ^55 Fe can be determined.
Subsequently, a reference solution is administered, consisting of ^59 Fe-labelled iron(II)sulphate and ascorbic acid at two successive breakfasts after a night's fast. No food or beverage is allowed for three hours thereafter. Another two weeks later, a new total-body measurement is made to measure the absorption of the reference dose. The reference solution is administered to make it possible to carry out corrections with regard to differences in the iron absorbing capability of the different test subjects.
The amount of ^59 Fe which is added as ^59 FeCl3 to the wheat-flour, isotope-labels by so-called isotopic exchange all biologically available nonheme iron (=non-blood iron) in the meals analysed, i.e. on the one hand the native iron and, on the other hand, the part of the fortification iron which is dissolved. However, that part of the fortification iron which is not dissolved in the gastrointestinal tract, is not labelled. […]

[2] = Solubility in artificial gastric environment (0.1M HCl, pH 1, 37° C.); assay type: physicochemical; details: for % Solubility 10 min / % Solubility 30 min / % Solubility 60 min: 0.1M HCl, pH=1, 37° C.; for solubility at pH 1 / in 0.1M HCl / gastric environment (in words): pH 1 (0.1M HCl)
Method: Here, solubility tests for some commercially used iron(III)phosphates have also been included.
The compound examined in Example 1 was also measured as a reference substance (compound A)

[3] = humans; literature or background statement; cited from earlier work
[4] = 40 g buns, 0.2 mg native iron, 2.2 mg fortification iron, ten persons

Molecule | % Solubility 10 min [2] | % Solubility 30 min [2] | % Solubility 60 min [2] | solubility at pH 1 / in 0.1M HCl / gastric environment (in words) [2] | absorbability / bioavailability [3] | other results
Fe3 H8 (NH4)(PO4)6 .multidot.6H2 O [Compound A] | 86% | 100% | 100% | – | – | Relative bioavailability 55Fe/59Fe [1, 4]: 0.63 ± 0.04; Absorption, Fortification [1, 4]: 3.3%; bioavailability (in words) ([1]; humans): far better bioavailability than both the commercial fortifying agent which is to date most frequently used, i.e. iron powder, and the known commercial fortifying agent which, in structural respect, is its closest relation, i.e. common iron(III)phosphate
Fe3 H8 K(PO4)6 .multidot.6H2 O [Compound E] | 5% | 39% | 72% | low initial solubility but reached, after some time, relatively good values | – | –
O=P([O-])([O-])[O-].[Fe+3] [Common iron(III)phosphate, iron(III)phosphate, reference compound] | – | – | – | – | – | Absorption, Fortification ([1]; 60 g buns, 0.5 mg native iron, 3 mg fortification iron, ten persons): 1.1%
O=P([O-])([O-])[O-].[Fe+3] [iron(III)orthophosphate] | – | – | – | – | questionable in respect to the bioavailability of iron | –
O=S(=O)([O-])[O-].[Fe+2] [iron(II)sulphate] | – | – | – | – | highest absorbability; also recorded: high bioavailability in the human body | –
Fe5 H8 Na4 (PO4)9 .multidot.10H2 O [Compound C] | 70% | 93% | 100% | approximately the same good solubility properties as the ammonium-containing compound A | – | –
O=P([O-])([O-])OP(=O)([O-])O.[Fe+2].[Na+] [sodium iron pyrophosphate] | – | – | – | – | questionable in respect to the bioavailability of iron | –
FeH2 Na(PO4)2 .multidot.0.5H2 O [Compound D] | 61% | 92% | 100% | approximately the same good solubility properties as the ammonium-containing compound A | – | –
FeH5 Na(PO4)3 .multidot.H2 O [Compound B] | 82% | 97% | 100% | approximately the same good solubility properties as the ammonium-containing compound A | – | –
